In PubChem BioAssay (NCI):
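In this assay, cells in 96-well plates receive the compound at five concentrations for 48 hours. Endpoints are linearly interpolated between the surrounding concentrations. Here, GI50 denotes the concentration required for 50% inhibition of growth. At the TGI there is no net growth.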

How the values were obtained:
Assay in all cases: NCI anticancer screen, dose series, 48 h
SK-MEL-5 melanoma = system: SK-MEL-5 melanoma
786-0 renal = system: 786-0 renal
HCC-2998 colon = system: HCC-2998 colon
BT-549 breast = system: BT-549 breast
UO-31 renal = system: UO-31 renal
SN12C renal = system: SN12C renal
ACHN renal = system: ACHN renal
SW-620 colon = system: SW-620 colon
SK-MEL-28 melanoma = system: SK-MEL-28 melanoma
SF-539 CNS = system: SF-539 CNS
M14 melanoma = system: M14 melanoma
NCI-H23 lung = system: NCI-H23 lung
KM12 colon = system: KM12 colon
RPMI-8226 leukemia = system: RPMI-8226 leukemia
HOP-92 NSCLC = system: HOP-92 NSCLC
COLO 205 colon = system: COLO 205 colon
SF-268 CNS = system: SF-268 CNS
NCI-H522 lung = system: NCI-H522 lung
IGROV1 ovarian = system: IGROV1 ovarian
TK-10 renal = system: TK-10 renal
SR leukemia = system: SR leukemia
OVCAR-3 ovarian = system: OVCAR-3 ovarian
SNB-75 CNS = system: SNB-75 CNS
MDA-MB-435 = system: MDA-MB-435
LOX IMVI melanoma = system: LOX IMVI melanoma
CCRF-CEM leukemia = system: CCRF-CEM leukemia
HL-60(TB) leukemia = system: HL-60(TB) leukemia
OVCAR-4 ovarian = system: OVCAR-4 ovarian
SF-295 CNS = system: SF-295 CNS
K-562 leukemia = system: K-562 leukemia
NCI-H226 lung = system: NCI-H226 lung
EKVX NSCLC = system: EKVX NSCLC
CAKI-1 renal = system: CAKI-1 renal
HCT-116 colon = system: HCT-116 colon
A549 NSCLC = system: A549 NSCLC
MDA-MB-231 breast = system: MDA-MB-231 breast
MALME-3M melanoma = system: MALME-3M melanoma
RXF 393 renal = system: RXF 393 renal
HOP-62 NSCLC = system: HOP-62 NSCLC
T-47D breast = system: T-47D breast
UACC-257 melanoma = system: UACC-257 melanoma
DU-145 prostate = system: DU-145 prostate
NCI/ADR-RES ovarian = system: NCI/ADR-RES ovarian
SK-MEL-2 melanoma = system: SK-MEL-2 melanoma
SNB-19 CNS = system: SNB-19 CNS
SK-OV-3 ovarian = system: SK-OV-3 ovarian
UACC-62 melanoma = system: UACC-62 melanoma
HCT-15 colon = system: HCT-15 colon
OVCAR-8 ovarian = system: OVCAR-8 ovarian
PC-3 prostate = system: PC-3 prostate
A498 renal = system: A498 renal
HS 578T breast = system: HS 578T breast
MCF7 breast = system: MCF7 breast
HT29 colon = system: HT29 colon
OVCAR-5 ovarian = system: OVCAR-5 ovarian
MOLT-4 leukemia = system: MOLT-4 leukemia

For `O=c1[nH]cnc2c1ccn2C1OC(CO)C(O)C1O` (configuration not stated), the GI50 (SK-MEL-5 melanoma) was 6.1 µM, the TGI (SK-MEL-5 melanoma) was 19.2 µM and the GI50 (786-0 renal) was 3.56 µM. The TGI (786-0 renal) was > 100 µM, the GI50 (HCC-2998 colon) was 7.66 µM and the TGI (HCC-2998 colon) was > 100 µM. For the same compound, the GI50 (BT-549 breast) was 5.86 µM, the TGI (BT-549 breast) was > 100 µM and the GI50 (UO-31 renal) was 2.11 µM. For the same compound, the TGI (UO-31 renal) was 8.85 µM, the GI50 (SN12C renal) was 3.6 µM and the TGI (SN12C renal) was > 100 µM. The GI50 (ACHN renal) was 2.51 µM, the TGI (ACHN renal) was > 100 µM and the GI50 (SW-620 colon) was 3.17 µM. The TGI (SW-620 colon) was > 100 µM, the GI50 (SK-MEL-28 melanoma) was 18.6 µM and the TGI (SK-MEL-28 melanoma) was > 100 µM. For the same compound, the GI50 (SF-539 CNS) was 10.7 µM, the TGI (SF-539 CNS) was > 100 µM and the GI50 (M14 melanoma) was 4.36 µM. For the same compound, the TGI (M14 melanoma) was > 100 µM, the GI50 (NCI-H23 lung) was 6.01 µM and the TGI (NCI-H23 lung) was 65.4 µM. The GI50 (KM12 colon) was 8.89 µM, the TGI (KM12 colon) was > 100 µM and the GI50 (RPMI-8226 leukemia) was 3.15 µM. The TGI (RPMI-8226 leukemia) was 21.5 µM, the GI50 (HOP-92 NSCLC) was 2 µM and the TGI (HOP-92 NSCLC) was 15.5 µM. The GI50 (COLO 205 colon) was 3.41 µM, the TGI (COLO 205 colon) was 26.5 µM and the GI50 (SF-268 CNS) was 11.7 µM. The TGI (SF-268 CNS) was > 100 µM, the GI50 (NCI-H522 lung) was 7.32 µM and the TGI (NCI-H522 lung) was 34.7 µM. It also gave a GI50 (IGROV1 ovarian) of 4.32 µM, a TGI (IGROV1 ovarian) of 35.1 µM and a GI50 (TK-10 renal) of 3.64 µM. The TGI (TK-10 renal) was 51.3 µM, the GI50 (SR leukemia) was 5.38 µM and the TGI (SR leukemia) was 49.3 µM. For the same compound, the GI50 (OVCAR-3 ovarian) was 5.68 µM, the TGI (OVCAR-3 ovarian) was > 100 µM and the GI50 (SNB-75 CNS) was 3.8 µM. The TGI (SNB-75 CNS) was > 100 µM, the GI50 (MDA-MB-435) was 9.35 µM and the TGI (MDA-MB-435) was > 100 µM. The GI50 (LOX IMVI melanoma) was 2.18 µM, the TGI (LOX IMVI melanoma) was 16 µM and the GI50 (CCRF-CEM leukemia) was 4.74 µM. It also gave a TGI (CCRF-CEM leukemia) of 96 µM, a GI50 (HL-60(TB) leukemia) of 3.88 µM and a TGI (HL-60(TB) leukemia) of 21.1 µM. For the same compound, the GI50 (OVCAR-4 ovarian) was 1.48 µM, the TGI (OVCAR-4 ovarian) was 28.7 µM and the GI50 (SF-295 CNS) was 8.6 µM. The TGI (SF-295 CNS) was > 100 µM, the GI50 (K-562 leukemia) was 5.86 µM and the TGI (K-562 leukemia) was > 100 µM. The GI50 (NCI-H226 lung) was 16.1 µM, the TGI (NCI-H226 lung) was > 100 µM and the GI50 (EKVX NSCLC) was 17.8 µM. For the same compound, the TGI (EKVX NSCLC) was > 100 µM, the GI50 (CAKI-1 renal) was 2.57 µM and the TGI (CAKI-1 renal) was > 100 µM. It also gave a GI50 (HCT-116 colon) of 2.29 µM, a TGI (HCT-116 colon) of 28.8 µM and a GI50 (A549 NSCLC) of 7.53 µM. For the same compound, the TGI (A549 NSCLC) was > 100 µM, the GI50 (MDA-MB-231 breast) was 4.27 µM and the TGI (MDA-MB-231 breast) was > 100 µM. For the same compound, the GI50 (MALME-3M melanoma) was 6.42 µM, the TGI (MALME-3M melanoma) was 32.8 µM and the GI50 (RXF 393 renal) was 3.12 µM. The TGI (RXF 393 renal) was 22.9 µM, the GI50 (HOP-62 NSCLC) was 6.7 µM and the TGI (HOP-62 NSCLC) was > 100 µM. For the same compound, the GI50 (T-47D breast) was 2.49 µM, the TGI (T-47D breast) was 80 µM and the GI50 (UACC-257 melanoma) was 12.3 µM. For the same compound, the TGI (UACC-257 melanoma) was 78 µM, the GI50 (DU-145 prostate) was 2.34 µM and the TGI (DU-145 prostate) was 23.8 µM. The GI50 (NCI/ADR-RES ovarian) was 3.2 µM, the TGI (NCI/ADR-RES ovarian) was > 100 µM and the GI50 (SK-MEL-2 melanoma) was 3.04 µM. The TGI (SK-MEL-2 melanoma) was 17.5 µM, the GI50 (SNB-19 CNS) was 14.8 µM and the TGI (SNB-19 CNS) was > 100 µM. For the same compound, the GI50 (SK-OV-3 ovarian) was 3.72 µM, the TGI (SK-OV-3 ovarian) was > 100 µM and the GI50 (UACC-62 melanoma) was 10.1 µM. The TGI (UACC-62 melanoma) was 27.8 µM, the GI50 (HCT-15 colon) was 4.1 µM and the TGI (HCT-15 colon) was > 100 µM. The GI50 (OVCAR-8 ovarian) was 2.3 µM, the TGI (OVCAR-8 ovarian) was 90.4 µM and the GI50 (PC-3 prostate) was 3.35 µM. The TGI (PC-3 prostate) was > 100 µM, the GI50 (A498 renal) was 4.72 µM and the TGI (A498 renal) was 70.5 µM. The GI50 (HS 578T breast) was 14 µM, the TGI (HS 578T breast) was > 100 µM and the GI50 (MCF7 breast) was 2.41 µM. For the same compound, the TGI (MCF7 breast) was > 100 µM, the GI50 (HT29 colon) was 5.73 µM and the TGI (HT29 colon) was > 100 µM. The GI50 (OVCAR-5 ovarian) was 12 µM, the TGI (OVCAR-5 ovarian) was > 100 µM and the GI50 (MOLT-4 leukemia) was 4.38 µM. For the same compound, the TGI (MOLT-4 leukemia) was 20.3 µM.
